Results from patent publication US20250215029A1 (Recludix Pharma, Inc., priority 2022, published 2025).
pIC50: −log10 of the molar value.

target: T1, pY705-STAT3 in PBMC (Homo sapiens, UniProt P40763); experiment: MSD-pSTAT-PBMC Assay (pSTAT3, IL-6 stimulated); assay type: cell-based; details: PBMC, compound 3 hrs, then 10 ng/mL IL-6 for 10 min; Table 115; read-out: STAT3
T1 construct: Cryopreserved Peripheral Blood Mononuclear Cells (PBMC) are from AllCells; host or cells: cryopreserved PBMC
In short: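 Human PBMCs were pretreated with compound for 3 h, then stimulated with 10 ng/mL IL-6 for 10 min. Lysate pY705-STAT3 was measured by MSD sandwich immunoassay (anti-STAT3 capture) and corrected for unstimulated background. Signal was normalized to DMSO, and IC50 came from variable-slope regression.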

T1 sequence (P40763 whole entry): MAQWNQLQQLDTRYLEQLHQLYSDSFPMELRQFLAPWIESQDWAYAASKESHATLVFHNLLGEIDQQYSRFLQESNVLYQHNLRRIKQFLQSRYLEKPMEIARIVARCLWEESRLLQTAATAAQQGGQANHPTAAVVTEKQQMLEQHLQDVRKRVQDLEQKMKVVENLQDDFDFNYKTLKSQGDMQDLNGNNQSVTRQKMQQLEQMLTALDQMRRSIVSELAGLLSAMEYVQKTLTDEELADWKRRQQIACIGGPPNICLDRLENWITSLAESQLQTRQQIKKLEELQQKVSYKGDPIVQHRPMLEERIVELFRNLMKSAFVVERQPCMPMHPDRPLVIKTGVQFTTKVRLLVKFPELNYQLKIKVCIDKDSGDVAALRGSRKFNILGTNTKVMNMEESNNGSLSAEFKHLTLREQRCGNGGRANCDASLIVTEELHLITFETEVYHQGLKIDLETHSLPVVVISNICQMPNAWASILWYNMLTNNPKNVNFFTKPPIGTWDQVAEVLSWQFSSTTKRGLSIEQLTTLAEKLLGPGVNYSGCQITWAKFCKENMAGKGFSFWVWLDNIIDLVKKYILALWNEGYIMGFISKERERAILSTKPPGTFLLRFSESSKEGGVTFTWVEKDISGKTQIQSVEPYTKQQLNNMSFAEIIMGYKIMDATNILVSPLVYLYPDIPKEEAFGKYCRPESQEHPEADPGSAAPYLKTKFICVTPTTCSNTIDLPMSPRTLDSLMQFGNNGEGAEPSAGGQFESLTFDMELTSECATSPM

SMILES | pIC50
CCCCOC(=O)[C@H](C)NP(=O)(Oc1cccc2ccccc12)C(F)(F)c1ccc2sc(C(=O)N[C@H]3CCC[C@H]4CC[C@@H](C(=O)N5CC(c6cccnc6)C5)N4C3=O)cc2c1 (stereo partly drawn) [Compound 971, butyl ((difluoro(2-(((3S,6S,9aS)-5-oxo-3-(3-(pyridin-3-yl)azetidine-1-carbonyl)octahydro-1H-pyrrolo[1,2-a]azepin-6-yl)carbamoyl)benzo [b]thiophen-5-yl)methyl) (naphthalen-1-yloxy)phosphoryl)-L-alaninate] | 5.52 to 6.00
CC(C)OC(=O)[C@H](C)NP(=O)(Oc1ccccc1)C(F)c1ccc2sc(C(=O)N[C@H]3CCC[C@H]4CC[C@@H](C(=O)N5CC(c6cnccc6F)C5)N4C3=O)cc2c1 (stereo partly drawn) [Compound 972, isopropyl ((fluoro(2-(((3S,6S,9aS)-3-(3-(4-fluoropyridin-3-yl)azetidine-1-carbonyl)-5-oxooctahydro-1H-pyrrolo[1,2-a]azepin-6-yl)carbamoyl)benzo [b]thiophen-5-yl)methyl) (phenoxy)phosphoryl)-L-alaninate] | > 7.00
CCCOC(=O)[C@H](C)NP(=O)(Oc1ccccc1)C(F)c1ccc2sc(C(=O)N[C@H]3CCC[C@H]4CC[C@@H](C(=O)N5CC(c6cnccc6O)C5)N4C3=O)cc2c1 (stereo partly drawn) [Compound 974, propyl ((fluoro(2-(((3S,6S,9aS)-3-(3-(4-hydroxypyridin-3-yl)azetidine-1-carbonyl)-5-oxooctahydro-1H-pyrrolo[1,2-a]azepin-6-yl)carbamoyl)benzo [b]thiophen-5-yl)methyl)(phenoxy)phosphoryl)-L-alaninate] | 6.00 to 7.00
CCCOC(=O)[C@H](C)NP(=O)(Cc1ccc2sc(C(=O)N[C@H]3CCC[C@H]4CC[C@@H](C(=O)N5CC(c6cnccc6O)C5)N4C3=O)cc2c1)Oc1ccccc1 (stereo partly drawn) [Compound 975, propyl (((2-(((3S,6S,9aS)-3-(3-(4-hydroxypyridin-3-yl)azetidine-1-carbonyl)-5-oxooctahydro-1H-pyrrolo[1,2-a]azepin-6-yl)carbamoyl)benzo [b]thiophen-5-yl)methyl)(phenoxy)phosphoryl)-L-alaninate] | > 7.00
CCCOC(=O)[C@H](C)NP(=O)(Cc1ccc2sc(C(=O)N[C@H]3CCC[C@H]4CC[C@@H](C(=O)N5CC(c6c(F)ccnc6C)C5)N4C3=O)cc2c1)Oc1ccccc1 (stereo partly drawn) [Compound 978, propyl (((2-(((3S,6S,9aS)-3-(3-(4-fluoro-2-methylpyridin-3-yl)azetidine-1-carbonyl)-5-oxooctahydro-1H-pyrrolo[1,2-a]azepin-6-yl)carbamoyl)benzo [b]thiophen-5-yl)methyl)(phenoxy)phosphoryl)-L-alaninate] | 6.00 to 7.00
CCCOC(=O)[C@H](C)NP(=O)(Cc1ccc2sc(C(=O)N[C@H]3CCC[C@H]4CC[C@@H](C(=O)N5CC(c6cn(C)ccc6=O)C5)N4C3=O)cc2c1)Oc1ccccc1 (stereo partly drawn) [Compound 979, propyl (((2-(((3S,6S,9aS)-3-(3-(1-methyl-4-oxo-1,4-dihydropyridin-3-yl)azetidine-1-carbonyl)-5-oxooctahydro-1H-pyrrolo[1,2-a]azepin-6-yl)carbamoyl)benzo [b]thiophen-5-yl)methyl)(phenoxy)phosphoryl)-L-alaninate] | < 5.52
CCCOC(=O)[C@H](C)NP(=O)(Cc1ccc2sc(C(=O)N[C@H]3CCC[C@H]4CC[C@@H](C(=O)N5CC(c6c(OC)ccnc6F)C5)N4C3=O)cc2c1)Oc1ccccc1 (stereo partly drawn) [Compound 980, propyl (((2-(((3S,6S,9aS)-3-(3-(2-fluoro-4-methoxypyridin-3-yl)azetidine-1-carbonyl)-5-oxooctahydro-1H-pyrrolo[1,2-a]azepin-6-yl)carbamoyl)benzo [b]thiophen-5-yl)methyl)(phenoxy)phosphoryl)-L-alaninate] | 5.52 to 6.00
C[C@H](NP(=O)(Oc1ccccc1)C(F)c1ccc2sc(C(=O)N[C@H]3CCC[C@H]4CC[C@@H](C(=O)N5CC(c6cnccc6F)C5)N4C3=O)cc2c1)C(=O)OCCC(F)(F)F (stereo partly drawn) [Compound 983, 3,3,3-trifluoropropyl ((fluoro(2-(((3S,6S,9aS)-3-(3-(4-fluoropyridin-3-yl)azetidine-1-carbonyl)-5-oxooctahydro-1H-pyrrolo[1,2-a]azepin-6-yl)carbamoyl)benzo [b]thiophen-5-yl)methyl)(phenoxy)phosphoryl)-L-alaninate] | > 7.00
CCCOC(=O)[C@H](C)NP(=O)(Oc1ccccc1)C(F)c1ccc2sc(C(=O)N[C@H]3CCC[C@H]4CC[C@@H](C(=O)N5CC(c6cn(C)ccc6=O)C5)N4C3=O)cc2c1 (stereo partly drawn) [Compound 985, propyl ((fluoro(2-(((3S,6S,9aS)-3-(3-(1-methyl-4-oxo-1,4-dihydropyridin-3-yl)azetidine-1-carbonyl)-5-oxooctahydro-1H-pyrrolo[1,2-a]azepin-6-yl)carbamoyl)benzo [b]thiophen-5-yl)methyl)(phenoxy)phosphoryl)-L-alaninate] | < 5.52
CCCOC(=O)[C@H](C)NP(=O)(Oc1ccccc1)C(F)c1ccc2sc(C(=O)N[C@H]3CCC[C@H]4CC[C@@H](C(=O)N5CC(c6cc(F)ccc6F)C5)N4C3=O)cc2c1 (stereo partly drawn) [Compound 986, propyl (((2-(((3S,6S,9aS)-3-(3-(2,5-difluorophenyl)azetidine-1-carbonyl)-5-oxooctahydro-1H-pyrrolo[1,2-a]azepin-6-yl)carbamoyl)benzo [b]thiophen-5-yl)fluoromethyl) (phenoxy)phosphoryl)-L-alaninate] | 5.52 to 6.00
CCCOC(=O)[C@H](C)NP(=O)(Oc1ccccc1)C(F)c1ccc2sc(C(=O)N[C@H]3CCCC[C@H]4CC[C@@H](C(=O)N5CC(NCCOC)(c6ccccn6)C5)N4C3=O)cc2c1 (stereo partly drawn) [Compound 987, propyl ((fluoro(2-(((3S,6S,10aS)-3-(3-((2-methoxyethyl)amino)-3-(pyridin-2-yl)azetidine-1-carbonyl)-5-oxodecahydropyrrolo [1,2-a]azocin-6-yl)carbamoyl)benzo [b]thiophen-5-yl)methyl)(phenoxy)phosphoryl)-L-alaninate] | 6.00 to 7.00
CCCOC(=O)[C@H](C)NP(=O)(Cc1ccc2sc(C(=O)N[C@H]3CC[C@@H](C)C[C@H]4CC[C@@H](C(=O)N5CC(c6cnccc6F)C5)N4C3=O)cc2c1)Oc1ccccc1 (stereo partly drawn) [Compound 988, propyl (((2-(((3S,6S,9R,10aR)-3-(3-(4-fluoropyridin-3-yl)azetidine-1-carbonyl)-9-methyl-5-oxodecahydropyrrolo [1,2-a]azocin-6-yl)carbamoyl)benzo [b]thiophen-5-yl)methyl)(phenoxy)phosphoryl)-L-alaninate] | > 7.00
CCCOC(=O)[C@H](C)NP(=O)(Cc1ccc2sc(C(=O)N[C@H]3CCC[C@H]4CC[C@@H](C(=O)N5CC(c6c(OC)ccnc6C(F)F)C5)N4C3=O)cc2c1)Oc1ccccc1 (stereo partly drawn) [Compound 990, propyl (((2-(((3S,6S, 9aS)-3-(3-(2-(difluoromethyl)-4-methoxypyridin-3-yl)azetidine-1-carbonyl)-5-oxooctahydro-1H-pyrrolo[1,2-a]azepin-6-yl)carbamoyl)benzo [b]thiophen-5-yl)methyl)(phenoxy)phosphoryl)-L-alaninate] | < 5.52
